According to US9637491B2, “Pyrazolo[4,3-D]pyrimidines as kinase inhibitors” (Origenis GmbH, priority 2012, dated 2017):
pIC50: −log10 of the molar value.

The compounds below were run against T1, SYK kinase (Homo sapiens, UniProt P43405) (assay: SYK assay (OMNIA Kinase Assay, Invitrogen)). Conditions: SYK Activities; 1 mM ATP, 10 μM Omnia Peptide Substrate Tyr 7, 30° C.
T1 construct: purchased Invitrogen, Carlsbad
Format: biochemical
Procedure, shortened: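 Continuous-read fluorescence kinase assay: SOX-labelled Tyr 7 peptide (10 μM) with 1 mM ATP and 0.2 mM DTT, 30° C, reaction started by adding SYK. Fluorescence (ex 360/em 485 nm) read every 30 s for 30 min. IC50 from sigmoidal fit of reaction velocity versus inhibitor concentration.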

| SMILES | pIC50 |
| --- | --- |
| CN1CCN(C2CCN(C(=O)c3ccc(Nc4nc(C5CC5)nc5cn[nH]c45)cc3)CC2)CC1 [Example 53, (4-((5-cyclopropyl-1H-pyrazolo[4,3-d]pyrimidin-7-yl)amino)phenyl)(4-(4-methylpiperazin-1-yl)piperidin-1-yl)methanone] | 6.00 to 7.00 |
| CC(C)(C)n1cc(Nc2nc(-c3cccc(NS(C)(=O)=O)c3)nc3cn[nH]c23)cn1 [Example 258, N-(3-(7-((1-(tert-butyl)-1H-pyrazol-4-yl)amino)-1H-pyrazolo[4,3-d]pyrimidin-5-yl)phenyl)methanesulfonamide] | 6.00 to 7.00 |
| O=C(c1ccc(Nc2nc(-c3ccoc3)nc3cn[nH]c23)cc1F)N1CCOCC1 [Example 201, (2-fluoro-4-((5-(furan-3-yl)-1H-pyrazolo[4,3-d]pyrimidin-7-yl)amino)phenyl)(morpholino)methanone] | 6.00 to 7.00 |
| COc1cc(Nc2nc(-c3cccc(NS(C)(=O)=O)c3)nc3cn[nH]c23)ccc1N1CCOCC1 [Example 41, N-(3-(7-((3-methoxy-4-morpholinophenyl)amino)-1H-pyrazolo[4,3-d]pyrimidin-5-yl)phenyl)methanesulfonamide] | 6.00 to 7.00 |
| COc1cc(Nc2nc(-c3ccno3)nc3cn[nH]c23)ccc1N1CCOCC1 [Example 71, 5-(isoxazol-5-yl)-N-(3-methoxy-4-morpholinophenyl)-1H-pyrazolo[4,3-d]pyrimidin-7-amine] | 6.00 to 7.00 |
| O=C1OCCN1c1ccc(Nc2nc(-c3ccoc3)nc3cn[nH]c23)cc1 [Example 98] | 6.00 to 7.00 |
| CC(C)(C#N)n1cc(Nc2nc(-c3ccoc3)nc3cn[nH]c23)cn1 [Example 203, 2-(4-((5-(furan-3-yl)-1H-pyrazolo[4,3-d]pyrimidin-7-yl)amino)-1H-pyrazol-1-yl)-2-methylpropanenitrile] | 6.00 to 7.00 |
| c1coc(-c2nc(Nc3cnn(C4CCOCC4)c3)c3[nH]ncc3n2)n1 [Example 254, 5-(oxazol-2-yl)-N-(1-(tetrahydro-2H-pyran-4-yl)-1H-pyrazol-4-yl)-1H-pyrazolo[4,3-d]pyrimidin-7-amine] | 6.00 to 7.00 |
| COCCCn1cc(Nc2nc(C3CC3)nc3cn[nH]c23)cn1 [Example 230, 5-cyclopropyl-N-(1-(3-methoxypropyl)-1H-pyrazol-4-yl)-1H-pyrazolo[4,3-d]pyrimidin-7-amine] | 7.00 to 8.00 |
| N#Cc1cc(Nc2nc(-c3ccc4cn[nH]c4c3)nc3cn[nH]c23)ccc1N1CCOCC1 [Example 85, 5-((5-(1H-indazol-6-yl)-1H-pyrazolo[4,3-d]pyrimidin-7-yl)amino)-2-morpholinobenzonitrile] | 7.00 to 8.00 |
| O=C1OCCN1c1ccc(Nc2nc(-c3cccs3)nc3cn[nH]c23)cc1 [Example 38] | 6.00 to 7.00 |
| CC(C)n1cc(Nc2nc(-c3ccco3)nc3cn[nH]c23)cn1 [Example 214, 5-(furan-2-yl)-N-(1-isopropyl-1H-pyrazol-4-yl)-1H-pyrazolo[4,3-d]pyrimidin-7-amine] | > 8.00 |
| N#CCn1cc(Nc2nc(-c3ccoc3)nc3cn[nH]c23)cn1 [Example 241, 2-(4-((5-(furan-3-yl)-1H-pyrazolo[4,3-d]pyrimidin-7-yl)amino)-1H-pyrazol-1-yl)acetonitrile] | > 8.00 |
| COc1cc(Nc2nc(-c3ccon3)nc3cn[nH]c23)ccc1N1CCOCC1 [Example 76, 5-(isoxazol-3-yl)-N-(3-methoxy-4-morpholinophenyl)-1H-pyrazolo[4,3-d]pyrimidin-7-amine] | 6.00 to 7.00 |
| Cc1ccc(-c2nc(Nc3ccc(N4CCOCC4)cc3)c3[nH]ncc3n2)s1 [Example 9, 5-(5-methylthiophen-2-yl)-N-(4-morpholinophenyl)-1H-pyrazolo[4,3-d]pyrimidin-7-amine] | 7.00 to 8.00 |
| c1cc(N2CCOCC2)ccc1Nc1nc(C2CC2)nc2cn[nH]c12 [Example 18, 5-cyclopropyl-N-(4-morpholinophenyl)-1H-pyrazolo[4,3-d]pyrimidin-7-amine] | > 8.00 |
| CC(C)c1nc(Nc2ccc(N3CCOCC3)cc2)c2[nH]ncc2n1 [Example 181, 5-isopropyl-N-(4-morpholinophenyl)-1H-pyrazolo[4,3-d]pyrimidin-7-amine] | 6.00 to 7.00 |
| c1coc(-c2nc(Nc3ccc(N4CCOCC4)cc3)c3[nH]ncc3n2)c1 [Example 86, 5-(furan-2-yl)-N-(4-morpholinophenyl)-1H-pyrazolo[4,3-d]pyrimidin-7-amine] | 7.00 to 8.00 |
| CC(=O)N1CCN(c2ccc(Nc3nc(C(C)C)nc4cn[nH]c34)cc2)CC1 [Example 180, 1-(4-(4-((5-isopropyl-1H-pyrazolo[4,3-d]pyrimidin-7-yl)amino)phenyl)piperazin-1-yl)ethan-1-one] | 6.00 to 7.00 |

Continued, values first:

| pIC50 | SMILES |
| --- | --- |
| 6.00 to 7.00 | COCC(COC)n1cc(Nc2nc(-c3ccco3)nc3cn[nH]c23)cn1 [Example 455, N-(1-(1,3-dimethoxypropan-2-yl)-1H-pyrazol-4-yl)-5-(furan-2-yl)-1H-pyrazolo[4,3-d]pyrimidin-7-amine] |
| 7.00 to 8.00 | FCCn1cc(Nc2nc(C3CCC3)nc3cn[nH]c23)cn1 [Example 363, 5-cyclobutyl-N-(1-(2-fluoroethyl)-1H-pyrazol-4-yl)-1H-pyrazolo[4,3-d]pyrimidin-7-amine] |
| > 8.00 | CC(=O)N1CCC(n2cc(Nc3nc(-c4nc5ccccc5s4)nc4cn[nH]c34)cn2)CC1 [Example 458, 1-(4-(4-((5-(benzo[d]thiazol-2-yl)-1H-pyrazolo[4,3-d]pyrimidin-7-yl)amino)-1H-pyrazol-1-yl)piperidin-1-yl)ethan-1-one] |
| > 8.00 | c1ccc2sc(-c3nc(Nc4cnn(C5CCOCC5)c4)c4[nH]ncc4n3)nc2c1 [Example 413, 5-(benzo[d]thiazol-2-yl)-N-(1-(tetrahydro-2H-pyran-4-yl)-1H-pyrazol-4-yl)-1H-pyrazolo[4,3-d]pyrimidin-7-amine] |
| 7.00 to 8.00 | CN(C)C(=O)Cn1cc(Nc2nc(-c3cccc(-c4cccnc4)c3)nc3cn[nH]c23)cn1 [Example 466, N,N-dimethyl-2-(4-((5-(3-(pyridin-3-yl)phenyl)-1H-pyrazolo[4,3-d]pyrimidin-7-yl)amino)-1H-pyrazol-1-yl)acetamide] |
| 6.00 to 7.00 | CC(=O)N1CCC(n2cc(Nc3nc(-c4cccc(NS(C)(=O)=O)c4)nc4cn[nH]c34)cn2)CC1 [Example 266, N-(3-(7-((1-(1-acetylpiperidin-4-yl)-1H-pyrazol-4-yl)amino)-1H-pyrazolo[4,3-d]pyrimidin-5-yl)phenyl)methanesulfonamide] |
| 7.00 to 8.00 | CN1CCC(n2cc(Nc3nc(-c4nc5ccccc5o4)nc4cn[nH]c34)cn2)CC1 [Example 445, 5-(benzo[d]oxazol-2-yl)-N-(1-(1-methylpiperidin-4-yl)-1H-pyrazol-4-yl)-1H-pyrazolo[4,3-d]pyrimidin-7-amine] |
| 7.00 to 8.00 | OC1CCN(c2ccc(Nc3nc(-c4c(F)cccc4F)nc4cn[nH]c34)cc2)CC1 [Example 522, 1-(4-((5-(2,6-difluorophenyl)-1H-pyrazolo[4,3-d]pyrimidin-7-yl)amino)phenyl)piperidin-4-ol] |
| 7.00 to 8.00 | c1nn(C2CCCOC2)cc1Nc1nc(-c2ccc3cn[nH]c3c2)nc2cn[nH]c12 (centres unmarked) [Example 505, 5-(1H-indazol-6-yl)-N-(1-(tetrahydro-2H-pyran-3-yl)-1H-pyrazol-4-yl)-1H-pyrazolo[4,3-d]pyrimidin-7-amine] |
| > 8.00 | c1nn(C2CCNC2)cc1Nc1nc(C2CCC2)nc2cn[nH]c12 (centres unmarked) [Example 462, 5-cyclobutyl-N-(1-(pyrrolidin-3-yl)-1H-pyrazol-4-yl)-1H-pyrazolo[4,3-d]pyrimidin-7-amine] |
| 7.00 to 8.00 | FC(F)(F)Cn1cc(Nc2nc(C3CC3)nc3cn[nH]c23)cn1 [Example 374, 5-cyclopropyl-N-(1-(2,2,2-trifluoroethyl)-1H-pyrazol-4-yl)-1H-pyrazolo[4,3-d]pyrimidin-7-amine] |
| 7.00 to 8.00 | COCCCn1cc(Nc2nc(-c3cccc(OC)c3)nc3cn[nH]c23)cn1 [Example 408, 5-(3-methoxyphenyl)-N-(1-(3-methoxypropyl)-1H-pyrazol-4-yl)-1H-pyrazolo[4,3-d]pyrimidin-7-amine] |
| 7.00 to 8.00 | Nc1cccc(-c2nc(Nc3cnn(C4CCOCC4)c3)c3[nH]ncc3n2)c1 [Example 530, 5-(3-aminophenyl)-N-(1-(tetrahydro-2H-pyran-4-yl)-1H-pyrazol-4-yl)-1H-pyrazolo[4,3-d]pyrimidin-7-amine] |
| 6.00 to 7.00 | Clc1c(Nc2nc(C3CCC3)nc3cn[nH]c23)cnn1C1CCNCC1 [Example 364, N-(5-chloro-1-(piperidin-4-yl)-1H-pyrazol-4-yl)-5-cyclobutyl-1H-pyrazolo[4,3-d]pyrimidin-7-amine] |
| 6.00 to 7.00 | CC(c1ccccc1)n1cc(Nc2nc(-c3ccc4cn[nH]c4c3)nc3cn[nH]c23)cn1 (centres unmarked) [Example 477, 5-(1H-indazol-6-yl)-N-(1-(1-phenylethyl)-1H-pyrazol-4-yl)-1H-pyrazolo[4,3-d]pyrimidin-7-amine] |
| > 8.00 | CN1CCC(n2cc(Nc3nc(-c4cccs4)nc4cn[nH]c34)cn2)CC1 [Example 433, N-(1-(1-methylpiperidin-4-yl)-1H-pyrazol-4-yl)-5-(thiophen-2-yl)-1H-pyrazolo[4,3-d]pyrimidin-7-amine] |
| 7.00 to 8.00 | CN1CCN(c2ccc(Nc3nc(-c4c(F)cccc4F)nc4cn[nH]c34)cc2Cl)CC1 [Example 539, N-(3-chloro-4-(4-methylpiperazin-1-yl)phenyl)-5-(2,6-difluorophenyl)-1H-pyrazolo[4,3-d]pyrimidin-7-amine] |
| 7.00 to 8.00 | CC(C)n1cc(Nc2nc(C(C)(C)C)nc3cn[nH]c23)cn1 [Example 269, 5-(tert-butyl)-N-(1-isopropyl-1H-pyrazol-4-yl)-1H-pyrazolo[4,3-d]pyrimidin-7-amine] |
| 6.00 to 7.00 | COc1ccc(Nc2nc(-c3cnn(C(C)C(C)C)c3)nc3cn[nH]c23)cc1OC (centres unmarked) [Example 511, N-(3,4-dimethoxyphenyl)-5-(1-(3-methylbutan-2-yl)-1H-pyrazol-4-yl)-1H-pyrazolo[4,3-d]pyrimidin-7-amine] |
